Each block holds one molecule with its values, some of them ahead of it.
Target: T1, Human M4 (Homo sapiens, UniProt P08173)
T1 construct: expressed in transfected cells; host or cells: CHO-K1 (ATCC), stably expressing hM4 and Gqi5
T1 sequence (P08173 1-479): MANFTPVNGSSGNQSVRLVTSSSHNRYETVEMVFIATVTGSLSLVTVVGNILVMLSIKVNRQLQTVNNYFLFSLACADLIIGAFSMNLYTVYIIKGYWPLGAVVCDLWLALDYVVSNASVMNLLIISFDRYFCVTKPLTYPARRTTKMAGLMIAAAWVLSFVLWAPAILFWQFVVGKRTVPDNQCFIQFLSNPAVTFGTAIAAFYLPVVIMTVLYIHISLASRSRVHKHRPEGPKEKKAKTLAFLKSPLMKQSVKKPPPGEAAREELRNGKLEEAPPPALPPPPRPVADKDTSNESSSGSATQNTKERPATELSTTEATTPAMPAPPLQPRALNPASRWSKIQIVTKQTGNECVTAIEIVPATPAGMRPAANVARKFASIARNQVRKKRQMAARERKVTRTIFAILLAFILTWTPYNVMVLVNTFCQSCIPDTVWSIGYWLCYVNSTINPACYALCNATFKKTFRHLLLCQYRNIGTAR
Assay: mAChR M4 cell-based functional assay (calcium flux, potentiation of EC20 acetylcholine response) in hM4-Gqi5 CHO-K1 cells
Settings: for Emax at 30 µM: % ACh maximum at 30 μM, human M4 CHO-K1 cells; for EC50: CHO-K1 cells transfected with human M4 and Gqi5, positive allosteric modulator activity, EC20 acetylcholine
Method: Human M4 cDNA, along with the chimeric G protein Gqi5, were transfected into Chinese hamster ovary (CHO-K1) cells purchased from the American Type Culture Collection using commercially available Lipofectamine 2000 transfection reagent (Dalby, B. et al., Methods (2004) 33(2), 95-103). hM4-Gqi5 cells were grown in Ham's F-12 medium containing 10% heat-inactivated fetal bovine serum (FBS), 20 mM HEPES, 50 μg/mL G418 sulfate (CAS #108321-42-2), and 500 μg/mL Hygromycin B. rM4-Gqi5 cells were grown in DMEM containing 10% heat-inactivated FBS, 20 mM HEPES, 400 μg/mL G418 sulfate, and 500 μg/mL Hygromycin B.
For high throughput measurement of agonist-evoked increases in intracellular calcium, CHO-K1 cells stably expressing muscarinic receptors were plated in growth medium lacking G418 sulfate and hygromycin at 15,000 cells/20 μL/well in Greiner 384-well black-walled, tissue culture (TC)-treated, clear-bottom plates (VWR). Cells were incubated overnight at 37° C. and 5% CO2. The next day, cells were washed using an ELX 405 (BioTek) with assay buffer; the final volume was then aspirated to 20 μL. Next, 20 μL of a 2.3 μM stock of Fluo-4/acetoxymethyl ester (Invitrogen, Carlsbad, CA), prepared as a 2.3 mM stock in DMSO and mixed in a 1:1 ratio with 10% (w/v) Pluronic F-127 and diluted in assay buffer, was added to the wells and the cell plates were incubated for 50 minutes at 37° C. and 5% CO2. Dye was removed by washing with the ELX 405 and the final volume was aspirated to 20 μL. Compound master plates were formatted in an 11 point concentration-response curve (CRC) format (1:3 dilutions) in 100% DMSO with a starting concentration of 10 mM using a BRAVO liquid handler (Agilent). Test compound CRCs were then transferred to daughter plates (240 nL) using the Echo acoustic plate reformatter (Labcyte, Sunnyvale, CA) and then diluted into assay buffer (40 μL) to a 2× stock using a Thermo Fisher Combi (Thermo Fisher Scientific, Waltham, MA).
Calcium flux was measured using the Functional Drug Screening System (FDSS) 6000 or 7000 (Hamamatsu Corporation, Tokyo, Japan) as an increase in the fluorescent static ratio. Compounds were applied to cells (20 μL, 2×) using the automated system of the FDSS at 2-4 seconds into the protocol and the data were collected at 1 Hz. […] Agonist activity was analyzed as a concentration-dependent increase in calcium mobilization upon compound addition. Positive allosteric modulator activity was analyzed as a concentration-dependent increase in the EC20 acetylcholine response. With the acetylcholine EC20 set as baseline, the test compound EC50 is determined as the concentration that produces an increase above baseline of 50% of the maximum increase in acetylcholine response elicted by the test compound. Antagonist activity was analyzed as a concentration-dependent decrease in the EC80 acetylcholine response. Concentration-response curves were generated using a four-parameter logistical equation in XLFit curve fitting software (IDBS, Bridgewater, NJ) for Excel (Microsoft, Redmond, WA) or Prism (GraphPad Software, Inc., San Diego, CA).
Compounds were synthesized as described above. Activity (EC50 and Emax) was determined in the mAChR M4 cell-based functional assay as described above and the data are shown in Table 5. The compound numbers correspond to the compound numbers used in Examples 1-13 and Tables 1, 2, and 3.

SMILES: Cc1ccc(-c2cnc3c(c2)CN(c2ncnc4occ(C)c24)CC3)cn1 [Compound 48, 5-methyl-4-[3-(6-methyl-3-pyridyl)-7,8-dihydro-5H-1,6-naphthyridin-6-yl]furo[2,3-d]pyrimidine]
Emax at 30 µM: 102%
EC50: 90 nM

SMILES: Cc1ncc(-c2cnc3c(c2)CN(c2ncnc4occ(C)c24)CC3)s1 [Compound 49, 5-methyl-4-[3-(2-methylthiazol-5-yl)-7,8-dihydro-5H-1,6-naphthyridin-6-yl]furo[2,3-d]pyrimidine]
Emax at 30 µM: 68%
EC50: 130 nM

SMILES: Cc1noc2ncnc(N3CCc4ncc(N5CCOc6ncccc65)cc4C3)c12 [Compound 50, 1-[6-(3-methylisoxazolo[5,4-d]pyrimidin-4-yl)-7,8-dihydro-5H-1,6-naphthyridin-3-yl]-2,3-dihydropyrido[2,3-b][1,4]oxazine]
Emax at 30 µM: 100%
EC50: 240 nM

SMILES: Cc1ccc(-c2cnc3c(c2)CN(c2ncnc4onc(C)c24)CC3)cn1 [Compound 51, 3-methyl-4-[3-(6-methyl-3-pyridyl)-7,8-dihydro-5H-1,6-naphthyridin-6-yl]isoxazolo[5,4-d]pyrimidine]
Emax at 30 µM: 89%
EC50: 510 nM

SMILES: Cc1ncc(-c2cnc3c(c2)CN(c2ncnc4onc(C)c24)CC3)s1 [Compound 52, 3-methyl-4-[3-(2-methylthiazol-5-yl)-7,8-dihydro-5H-1,6-naphthyridin-6-yl]isoxazolo[5,4-d]pyrimidine]
Emax at 30 µM: 92%
EC50: 550 nM

SMILES: Cc1coc2ncnc(N3CCc4ncc(Cc5ccccc5F)cc4C3)c12 [Compound 53, 4-[3-[(2-fluorophenyl)methyl]-7,8-dihydro-5H-1,6-naphthyridin-6-yl]-5-methyl-furo[2,3-d]pyrimidine]
Emax at 30 µM: 81%
EC50: 280 nM

SMILES: Cc1coc2ncnc(N3CCc4ncc(Cc5cccc(F)c5)cc4C3)c12 [Compound 54, 4-[3-[(3-fluorophenyl)methyl]-7,8-dihydro-5H-1,6-naphthyridin-6-yl]-5-methyl-furo[2,3-d]pyrimidine]
Emax at 30 µM: 78%
EC50: 500 nM

SMILES: Cc1coc2ncnc(N3CCc4ncc(Nc5ccnn5C)cc4C3)c12 [Compound 55, 6-(5-methylfuro[2,3-d]pyrimidin-4-yl)-N-(2-methylpyrazol-3-yl)-7,8-dihydro-5H-1,6-naphthyridin-3-amine]
Emax at 30 µM: 94%
EC50: 60 nM

SMILES: Cc1coc2ncnc(N3CCc4ncc(-c5ccnn5C)cc4C3)c12 [Compound 56, 5-methyl-4-[3-(2-methylpyrazol-3-yl)-7,8-dihydro-5H-1,6-naphthyridin-6-yl]furo[2,3-d]pyrimidine]
Emax at 30 µM: 74%
EC50: 80 nM

SMILES: FC(F)(F)c1cnc2c(c1)CN(c1nc(Cl)nc3c1CCC3)CC2 [Compound 57, 6-(2-chloro-6,7-dihydro-5H-cyclopenta[d]pyrimidin-4-yl)-3-(trifluoromethyl)-7,8-dihydro-5H-1,6-naphthyridine]
Emax at 30 µM: 69%
EC50: 100 nM

SMILES: FC(F)(F)c1cnc2c(c1)CN(c1nc(C3CC3)nc3c1CCC3)CC2 [Compound 58, 6-(2-cyclopropyl-6,7-dihydro-5H-cyclopenta[d]pyrimidin-4-yl)-3-(trifluoromethyl)-7,8-dihydro-5H-1,6-naphthyridine]
Emax at 30 µM: 88%
EC50: 1480 nM

SMILES: Cc1nc2c(c(N3CCc4ncc(C(F)(F)F)cc4C3)n1)CCC2 [Compound 59, 6-(2-methyl-6,7-dihydro-5H-cyclopenta[d]pyrimidin-4-yl)-3-(trifluoromethyl)-7,8-dihydro-5H-1,6-naphthyridine]
Emax at 30 µM: 87%
EC50: 1030 nM

SMILES: Cn1ncc2ncnc(N3CCc4ncc(C(F)(F)F)cc4C3)c21 [Compound 60, 6-(1-methylpyrazolo[4,3-d]pyrimidin-7-yl)-3-(trifluoromethyl)-7,8-dihydro-5H-1,6-naphthyridine]
Emax at 30 µM: 31%
EC50: 6060 nM

Continued, values first:

Emax at 30 µM: 80%
EC50: 830 nM
SMILES: Cn1ccc2c(N3CCc4ncc(C(F)(F)F)cc4C3)ncnc21 [Compound 61, 6-(7-methylpyrrolo[2,3-d]pyrimidin-4-yl)-3-(trifluoromethyl)-7,8-dihydro-5H-1,6-naphthyridine]

Emax at 30 µM: 58%
EC50: 3290 nM
SMILES: FC(F)(F)c1cnc2c(c1)CN(c1nc(Cl)nc3c1COC3)CC2 [Compound 62, 2-chloro-4-[3-(trifluoromethyl)-7,8-dihydro-5H-1,6-naphthyridin-6-yl]-5,7-dihydrofuro[3,4-d]pyrimidine]

Emax at 30 µM: 56%
EC50: 370 nM
SMILES: Clc1nc2c(c(N3CCc4ncc(N5CCOc6ncccc65)cc4C3)n1)COC2 [Compound 63, 1-[6-(2-chloro-5,7-dihydrofuro[3,4-d]pyrimidin-4-yl)-7,8-dihydro-5H-1,6-naphthyridin-3-yl]-2,3-dihydropyrido[2,3-b][1,4]oxazine]

Emax at 30 µM: 62%
EC50: 300 nM
SMILES: Clc1nc2c(c(N3CCc4ncc(N5CCCn6nccc65)cc4C3)n1)COC2 [Compound 64, 2-chloro-4-(3-(6,7-dihydropyrazolo[1,5-a]pyrimidin-4(5H)-yl)-7,8-dihydro-1,6-naphthyridin-6(5H)-yl)-5,7-dihydrofuro[3,4-d]pyrimidine]

Emax at 30 µM: 35%
EC50: 3260 nM
SMILES: C[C@@H]1CN(c2cnc3c(c2)CN(c2nc(Cl)nc4c2COC4)CC3)CCO1 [Compound 65, (R)-2-chloro-4-(3-(2-methylmorpholino)-7,8-dihydro-1,6-naphthyridin-6(5H)-yl)-5,7-dihydrofuro[3,4-d]pyrimidine]

Emax at 30 µM: 54%
EC50: 580 nM
SMILES: Clc1nc2c(c(N3CCc4ncc(C5CC5)cc4C3)n1)COC2 [Compound 66, 2-chloro-4-(3-cyclopropyl-7,8-dihydro-1,6-naphthyridin-6(5H)-yl)-5,7-dihydrofuro[3,4-d]pyrimidine]

Emax at 30 µM: 51%
EC50: 1220 nM
SMILES: Cn1nccc1Nc1cnc2c(c1)CN(c1nc(Cl)nc3c1COC3)CC2 [Compound 67, 6-(2-chloro-5,7-dihydrofuro[3,4-d]pyrimidin-4-yl)-N-(1-methyl-1H-pyrazol-5-yl)-5,6,7,8-tetrahydro-1,6-naphthyridin-3-amine]

Emax at 30 µM: 51%
EC50: 920 nM
SMILES: Fc1ncccc1Nc1cnc2c(c1)CN(c1nc(Cl)nc3c1COC3)CC2 [Compound 68, 6-(2-chloro-5,7-dihydrofuro[3,4-d]pyrimidin-4-yl)-N-(2-fluoropyridin-3-yl)-5,6,7,8-tetrahydro-1,6-naphthyridin-3-amine]

Emax at 30 µM: 42%
EC50: 990 nM
SMILES: Fc1ccccc1Oc1cnc2c(c1)CN(c1nc(Cl)nc3c1COC3)CC2 [Compound 69, 2-chloro-4-(3-(2-fluorophenoxy)-7,8-dihydro-1,6-naphthyridin-6(5H)-yl)-5,7-dihydrofuro[3,4-d]pyrimidine]
